Results taken from patent publication US11865158B2, “Process and composition matter of nanoparticle formulation for systemic treatment of sepsis” (PURDUE RESEARCH FOUNDATION, priority 2019, dated 2024).
Like-named read-outs stand apart in the source and are kept apart here.

Assays:
J774a.1 macrophages [1] = test: Effect on cell membrane, confocal microscopy with wheat germ agglutinin; format: cell-based; conditions: eq. to 150 μg/mL PMB, 12 h
Description: (§1) Effect of PMB and D-TZP on cell membrane. The effect of D-TZP on J774A.1 cell membrane was monitored by two methods (scanning electron microscopy and confocal microscopy). For scanning electron microscopy, J774A.1 macrophages were plated in a 6-well plate at a density of 3×10^5 cells per well with 3 mL of complete medium. After overnight incubation at 37° C. in a 5% CO2 atmosphere, the cells were treated with either free PMB or D-TZP at a concentration equivalent to 150 μg/mL PMB for 12 h. The cells were centrifuged at 233 relative centrifugal force (rcf) for 3 min. The medium was removed, and 2.5% glutaraldehyde solution was added for fixation overnight at 4° C. The cells were then rinsed three times with water (5 min each) and incubated in 2% Osmium tetroxide for 1 h. After rinsing another three times with water (5 min each), the cells were dehydrated with a series of ethanol gradients (50%, 75%, 95%) for 10 minutes at each step. The dehydrated cells were rinsed with 100% ethanol three times for 10 minutes each time, stored in a 1:1 mixture of HMDS and ethanol in 1:1 for 30 min, and rinsed with 100% HMDS for 30 min twice. After overnight drying, the cells were placed on a carbon tape attached to an aluminum stud and coated with platinum for SEM analysis. The morphology of treated J774a.1 cells then was observed by a FEI NOVA NanoSEM scanning electron microscope (SEM). […]

J774a.1 macrophages [2] = test: Effect on cell membrane, SEM; format: cell-based; conditions: eq. to 150 μg/mL PMB, 12 h
Description: as §1

LPS-induced sepsis = test: Therapeutic efficacy in LPS-induced endotoxemia (sepsis) model; format: in vivo, C57BL/6 mice; conditions: free PMB at the respective LD50 (20 mg/kg for IP and 5 mg/kg for IV)
Description: The therapeutic efficacy of D-TZP was tested in a mouse model of sepsis. C57BL/6 male mice were given IP injection of 20 mg/kg LPS, which causes systemic inflammation similar to initial clinical features of sepsis. TZP or D-TZP was administered in three regimens:
Therapeutic efficacy in LPS-induced endotoxemia model. 6-8 week-old C57BL/6 mice (male and female) were challenged with an intraperitoneal injection of 20 mg/kg LPS solution (5% dextrose) via 20G catheter (Exel International Disposable Safelet I.V.), which causes systemic inflammation similar to initial clinical features of sepsis^17,19. […] A vehicle control (5% dextrose) or an equivalent dose of free PMB were given in the same manner for comparison. […] Buprenorphine (0.05 mg/kg) was injected subcutaneously shortly after the treatment and every 2-12 h as the signs of discomfort were observed. The body temperature was measured with a Pocket Infrared Thermometer (Braintree Scientific, Inc., Braintree, MA) at each observation, and the body weight was recorded at each observation. When an animal was found dead at the time of observation, the time of death was estimated to be in the halfway of the last two observation times. When animals were lethargic and cold at the time of observation, the animals were euthanized by CO2 asphyxiation. The mouse survival was monitored for 2 weeks.

[3] = tested on: cecal ligation and puncture (CLP) model; test: Therapeutic efficacy in cecal ligation and puncture (CLP) polymicrobial sepsis model; format: in vivo, C57BL/6 mice; conditions: IV 2 h post-CLP and every 2 days, max three times; D-TZP and TZP 10 mg/kg PMB eq., free PMB 5 mg/kg
Description: The efficacy of systemic […] was further tested in cecal ligation and puncture (CLP) model, which induces systemic inflammation by polymicrobial infection and thus simulates a clinically relevant septic state (Toscano, M. G. et al., JoVE, e2860 (2011)). D-TZP and TZP was administered IV at 10 mg/kg PMB eq. 2 h post-CLP and every subsequent 2 days a maximum total of three times. Free PMB was given at 5 mg/kg IV in the same schedule as D-TZP.
Therapeutic efficacy in polymicrobial sepsis model by cecal ligation and puncture (CLP). The efficacy of D-TZP and TZP was evaluated in a cecal ligation and puncture (CLP) model, the gold standard of polymicrobial sepsis model. The abdomen of 6 week-old C57BL/6 male was cleaned with a hair-removal cream (Nair, Church & Dwight Co., Inc). The mice were anesthetized by 2.5% isofluorane. Betadine 0.5% solution and 70% isopropyl alcohol swap were alternately applied three times to disinfect the shaved abdomen. Midline laparotomy was performed under an aseptic condition to exteriorize the cecum. The cecum was ligated below the ileocecal valve with a 5-0 suture (perma-hand silk, Ethicon) and perforated twice with 20 G needle on the same side of the cecum to release feces into the peritoneal cavity. After perforation, the intestines were returned to abdominal cavity. […] Animals were monitored as described in the endotoxemia model.

C57BL/6 male mice = conditions: known value, cited from earlier work

## polymyxin B [PMB]
J774a.1 macrophages [1]
  cell membrane staining with wheat germ agglutinin: significant membrane damage
J774a.1 macrophages [2]
  cell membrane morphology by SEM: deformed membrane morphology
LPS-induced sepsis
  protection of challenged animals: did not protect the challenged animals
[3]
  survival: 33%
C57BL/6 male mice; IP
  LD50: 20 mg/kg
C57BL/6 male mice; IV
  LD50: 5 mg/kg
